Measured values reported in patent US20220274979A1 (Bayer Pharma Aktiengesellschaft, priority 2018, published 2022).
Where two headings read alike, the source gives them in different places.

How the values were obtained:
[1] = molecular target: T1, hSOS1 (hSOS1-mediated nucleotide exchange of hK-RasG12C) (Homo sapiens, UniProt Q07889); test: Biochemical Assay 2: hK-RasG12C activation assay by hSOS1 at high GTP concentration (HTRF nucleotide exchange); settings: high GTP (50 μM GTP)
T1 construct: hSOS1 (amino acid 564-1049); made in house; host or cells: E. coli BL21 (DE3)
T1 sequence (Q07889 with tags, fused parts or gaps): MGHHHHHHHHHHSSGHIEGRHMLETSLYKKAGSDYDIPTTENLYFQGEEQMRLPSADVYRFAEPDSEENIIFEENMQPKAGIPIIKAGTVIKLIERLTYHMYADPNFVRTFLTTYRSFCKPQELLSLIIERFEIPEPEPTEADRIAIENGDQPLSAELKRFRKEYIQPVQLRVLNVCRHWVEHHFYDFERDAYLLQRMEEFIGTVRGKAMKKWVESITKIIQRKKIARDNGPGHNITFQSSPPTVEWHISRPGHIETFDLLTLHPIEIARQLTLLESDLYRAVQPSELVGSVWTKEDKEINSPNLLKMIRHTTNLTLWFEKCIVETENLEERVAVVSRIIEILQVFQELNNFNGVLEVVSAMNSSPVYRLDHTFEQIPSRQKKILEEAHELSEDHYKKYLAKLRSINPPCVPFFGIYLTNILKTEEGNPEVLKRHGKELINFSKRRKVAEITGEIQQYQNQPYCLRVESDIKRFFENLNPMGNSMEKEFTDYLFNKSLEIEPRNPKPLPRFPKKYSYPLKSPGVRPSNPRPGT
Source text: Biochemical Assay 2: hK-RasG12C Activation Assay by hSOS1 at High GTP Concentration
This assay quantifies human SOS1-mediated nucleotide exchange of human K-Ras^G12C (hK-RasG12C) preloaded with a fluorescent […] and in presence of an excess of free GTP. Loaded hK-RasG12C generates a high HTRF-signal by energy transfer from antiGST-Terbium (FRET donor) bound to hK-Ras to the loaded fluorescent GDP analog (FRET-acceptor). hSOS1 activity exchanges the fluorescent GDP for non-fluorescent GTP and therefore leads to a reduction of the HTRF signal.
The fluorescent GDP-analog EDA-GDP-Dy647P1 (2′/3′-O-(2-Aminoethyl-carbamoyl)-guanosine-5′-diphosphate labelled with Dy647P1 (Dyomics GmbH, Germany)) was synthesized by Jena Biosciences GmbH (Germany) and supplied as a 1 mM aqueous solution.
Concentrations of protein batches used were optimized to be within the linear range of the HTRF signal.
Addition of 20 μl 1 M MgCl2 (Sigma) to final 40 mM and store on ice. Purification into buffer (10 mM HEPES pH 7.4 (Applichem), 150 mM NaCl (Sigma), 5 mM MgCl2 (Sigma)) by use of a PD-Minitrap desalting column (GE Healthcare). Concentration of 1 ml purified hK-Ras-GDP-Dy647 is approx. 4-5 μM.
(§1) The assay buffer contained 10 mM HEPES pH 7.4 (Applichem), 150 mM NaCl (Sigma), 5 mM MgCl2 (Sigma), 1 mM DTT (Thermofisher), 0.05% BSA Fraction V, pH 7.0, (ICN Biomedicals), 0.0025% (v/v) Igepal (Sigma).
A Ras working solution was prepared in assay buffer containing typically 80 nM loaded GST-hK-RasG12C-EDA-GDP-Dy647P1 and 2 nM antiGST-Tb (Cisbio, France).
Alternatively, the inhibitor control solution was prepared by supplementing the hSOS1 working solution with 20 μM of 6,7-dimethoxy-N-[(1R)-1-(1-naphthyl)ethyl]quinazolin-4-amine which was used to calibrate the assay.
(§2) Fifty nl of a 100-fold concentrated solution of the test compound in DMSO were transferred into a black microtiter test plate (384 or 1536, Greiner Bio-One, Germany) For this, either a Hummingbird liquid handler (Digilab, Mass., USA) or an Echo acoustic system (Labcyte, Calif., USA) was used.
(§3) All steps of the assay were performed at 20° C. A volume of 2.5 μl of the Ras working solution was added to all wells of the test plate using a Multidrop dispenser (Thermo Labsystems). After 2 min. preincubation, 2.5 μl of the hSOS1 working solution were added to all wells except for those wells at the side of the test plate that were subsequently filled with 2.5 μl of the inhibitor control solution. After 20 min. incubation the fluorescence was measured with a Pherastar (BMG, Germany) using the HTRF module (excitation 337 nm, emission 1:620 nm, emission 2:665 nm).
(§4) IC50 values were calculated by 4-Parameter fitting using a commercial software package (Genedata Screener, Switzerland).

[2] = molecular target: T2, hK-RasG12C - hSOS1 interaction (Homo sapiens, UniProt Q07889); test: Biochemical Assay 1: hK-RasG12C interaction assay with hSOS1 (HTRF); format: binding
T2 construct: hSOS1 (amino acid 564-1049); made in house; host or cells: E. coli BL21 (DE3)
T2 sequence (Q07889 with tags, fused parts or gaps): T1 sequence (Q07889 with tags, fused parts or gaps)
Protocol: Biochemical Assay 1: hK-RasG12C Interaction Assay with hSOS1
This assay quantifies the equilibrium interaction of human SOS1 (hSOS1) with human K-Ras^G12C (hK-RasG12C). Detection of the interaction is achieved by measuring homogenous time-resolved fluorescence resonance energy transfer (HTRF) from antiGST-Europium (FRET donor) bound to GST-K-RasG12C to anti-6His-XL665 bound to His-tagged hSOS1 (FRET-acceptor).
The assay buffer contained 5 mM HEPES pH 7.4 (Applichem), 150 mM NaCl (Sigma), 10 mM EDTA (Promega), 1 mM DTT (Thermofisher), 0.05% BSA Fraction V, pH 7.0, (ICN Biomedicals), 0.0025% (v/v) Igepal (Sigma) and 100 mM KF (FLUKA).
Concentrations of protein batches used were optimized to be within the linear range of the HTRF signal. A Ras working solution was prepared in assay buffer containing typically 10 nM GST-hK-RasG12C and 2 nM antiGST-Eu(K) (Cisbio, France). A SOS1 working solution was prepared in assay buffer containing typically 20 nM His-hSOS1 and 10 nM anti-6His-XL665 (Cisbio, France). An inhibitor control solution was prepared in assay buffer containing 10 nM anti-6His-XL665 without hSOS1.
as §2
as §3, with “[…]” for “min.”, “SOS1” for “hSOS1”, “[…]” for “20 min.”
as §4

[3] = molecular target: T3, hSOS1 (hSOS1-mediated loading of hK-RasG12C-GDP) (Homo sapiens, UniProt Q07889); test: Biochemical Assay 3: hK-RasG12C activation assay by hSOS1 (loading with fluorescent GTP analog, HTRF); settings: no GTP
T3 construct: hSOS1 (amino acid 564-1049); made in house; host or cells: E. coli BL21 (DE3)
T3 sequence (Q07889 with tags, fused parts or gaps): T1 sequence (Q07889 with tags, fused parts or gaps)
Source text: Biochemical Assay 3: hK-RasG12C Activation Assay by hSOS1
K-Ras is a small GTPase that can bind GDP and GTP. The guanine nucleotide exchange factor SOS1 catalyzes the activation of K-Ras by promoting the exchange of GDP to GTP. SOS1 binds to K-Ras-GDP thereby opening the GDP-binding pocket to facilitate GDP release. Rebinding of excess nucleotide leads to dissociation of the K-Ras-SOS1 intermediate complex leaving K-Ras loaded with the nucleotide.
This assay quantifies human SOS1-(hSOS1-)mediated loading of human K-Ras^G12C-GDP (hK-RasG12C-GDP) with a fluorescent GTP-analog. Detection of successful loading is achieved by measuring homogenous time-resolved fluorescence resonance energy transfer (HTRF) from antiGST-Terbium (FRET donor) bound to GST-hK-RasG12C (see below) to the loaded fluorescent GTP analog (FRET-acceptor).
The fluorescent GTP-analog EDA-GTP-Dy647P1 (2′/3′-O-(2-Aminoethyl-carbamoyl)-guanosine-5′-triphosphate labelled with Dy647P1 (Dyomics GmbH, Germany)) was synthesized by Jena Biosciences GmbH (Germany) and supplied as a 1 mM aqueous solution.
as §1
Concentrations of protein batches used were optimized to be within the linear range of the HTRF signal. A hRas working solution was prepared in assay buffer containing typically 100 nM GST-hK-RasG12C and 2 nM antiGST-Tb (Cisbio, France). A hSOS1 working solution was prepared in assay buffer containing typically 20 nM hSOS1 and 200 nM EDA-GTP-Dy647P1. An inhibitor control solution was prepared in assay buffer containing 200 nM EDA-GTP-Dy647P1 without hSOS1.
as §2
as §3, with “the hRas” for “the Ras”, “After 10” for “After 2”, “After […]” for “After 20 min.”, “emission 1: 620” for “emission 1:620”
as §4

Row | SMILES | IC50 [1] | IC50 ([2]; values expressed as IC50) | IC50 [3] | IC50 [2]
1 | Cc1nc(NC(C)c2ccc(-c3ccccc3CN(C)C)s2)c2cc(OCCN(C)C)ncc2n1 (centres unmarked) [Example 66, 6-[2-(dimethylamino)ethoxy]-N-[1-(5-{2-[(dimethylamino)methyl]phenyl}thiophen-2-yl)ethyl]-2-methylpyrido[3,4-d]pyrimidin-4-amine] | 22.7 nM | 30.4 nM | – | –
2 | Cc1nc(NC(C)c2ccc(-c3ccccc3CN(C)C)s2)c2cc(N3CC(NCc4ccccc4)C3)ncc2n1 (centres unmarked) [Example 99, 6-[3-(benzylamino)azetidin-1-yl]-N-[1-(5-{2-[(dimethylamino)methyl]phenyl}thiophen-2-yl)ethyl]-2-methylpyrido[3,4-d]pyrimidin-4-amine] | 58.8 nM | 53.2 nM | 82.5 nM | –
3 | Cc1nc(NC(C)c2ccc(-c3ccccc3CN(C)C)s2)c2cc(N3CC(NC(=O)N4CCS(=O)(=O)CC4)C3)ncc2n1 (centres unmarked) [Example 100, N-[1-(4-{[1-(5-{2-[(dimethylamino)methyl]phenyl}thiophen-2-yl)ethyl]amino}-2-methylpyrido[3,4-d]pyrimidin-6-yl)azetidin-3-yl]thiomorpholine-4-carboxamide 1,1-dioxide] | 103 nM | 85.8 nM | 156 nM | –
4 | CCCOc1cc2c(NC(C)c3ccc(-c4ccccc4CN(C)C)s3)nc(C)nc2cn1 (centres unmarked) [Example 65, N-[1-(5-{2-[(dimethylamino)methyl]phenyl}thiophen-2-yl)ethyl]-2-methyl-6-propoxypyrido[3,4-d]pyrimidin-4-amine] | 32.8 nM | – | – | –
5 | CC(=O)N(c1cccc(C(=O)NC2CN(c3cc4c(NC(C)c5ccc(-c6ccccc6CN(C)C)s5)nc(C)nc4cn3)C2)c1)C1CCN(C(=O)OC(C)(C)C)CC1 (centres unmarked) [Example 98, tert-butyl 4-[acetyl(3-{[1-(4-{[1-(5-{2-[(dimethylamino)methyl]phenyl}thiophen-2-yl)ethyl]amino}-2-methylpyrido[3,4-d]pyrimidin-6-yl)azetidin-3-yl]carbamoyl}-phenyl)amino]piperidine-1-carboxylate] | 428 nM | – | 620 nM | 271 nM
6 | CC(=O)N(c1cccc(C(=O)NC2CN(c3cc4c(NC(C)c5ccc(-c6ccccc6CN(C)C)s5)nc(C)nc4cn3)C2)c1)[C@@H]1CCN(C(=O)OC(C)(C)C)C1 (stereo partly drawn) [Example 97, tert-butyl (3R)-3-[acetyl(3-{[1-(4-{[1-(5-{2-[(dimethylamino)methyl]phenyl}-2-thienyl)-ethyl]amino}-2-methylpyrido[3,4-d]pyrimidin-6-yl)azetidin-3-yl]carbamoyl}-phenyl)amino]pyrrolidine-1-carboxylate] | 298 nM | 293 nM | 554 nM | –
7 | Cc1nc(NC(C)c2ccc(-c3ccccc3CN(C)C)s2)c2cc(N3CCNC(=O)C3)ncc2n1 (centres unmarked) [Example 50, 4-(4-{[1-(5-{2-[(dimethylamino)methyl]phenyl}thiophen-2-yl)ethyl]amino}-2-methylpyrido[3,4-d]pyrimidin-6-yl)piperazin-2-one] | 48.8 nM | – | 54.8 nM | –
